Laboratory results taken from US7601724B2, “Substituted pyrazolo[1,5-a]pyrimidines as protein kinase inhibitors” (Schering Corporation, priority 2002, dated 2009).

Target: T1, Cyclin E/CDK2 (Homo sapiens, UniProt P24941)
T1 construct: made in house; host or cells: SF9 insect cells, baculovirus co-infection
Experiment: In vitro cyclin E/CDK2 kinase assay (33P-ATP, SPA beads), IC50 determination
Format: biochemical

IC50: 0.2 µM
SMILES: Cn1cc(-c2cnn3c(Nc4ccc(-n5ccnc5)cc4)cc(C4CCCNC4)nc23)cn1 (stereo not shown) [Example 90-C]
